Test results reported in US20210052537A1, “COLITIS AMELIORATING AGENT” (ASTA PHARMACEUTICALS, CO., LTD., priority 2018, published 2021).
Where “and” joins values, the source holds several entries; their conditions need not be identical. Identical values can stand only once.

Test system: Oxa-induced colitis
Assay: Oxazolone (Oxa)-induced colitis mouse model
Type: in vivo
Details: for Colon length / Colon weight (wet weight per length): 6 days, mean ± SD
Description: In this Example, mouse models to which oxazolone (4-ethoxymethylene-2-phenyl-2-oxazolin-5-on, hereinafter, Oxa) is used will be described as colitis models. When Oxa was first applied to skin, subsequently administered enterally after a certain period of time, an experimental ulcerative colitis model similar to human ulcerative colitis in terms of not only symptoms such as suppression of body weight increase, blood in stools, and anemia and formation of colon erosion but also immune cells was built (Non-Patent Literature 4). A suppression effect of Compound X on colitis in such a model as the test model showing pathological conditions more similar to human ulcerative colitis was examined. For the examination items, the length and weight of the colon were examined as changes in colon properties are widely known to occur also in this model.
For treatment, Balb/c, male mice were purchased from CHARLES RIVER LABORATORIES JAPAN, INC. in accordance with previous literature (Non-Patent Literature 5) and 8-week old mice with no abnormal general conditions during quarantine and acclimation period were used for the experiment. After acclimation, the animals were divided in such a way as to be 1 mouse per cage. Oxa used in the experiment was purchased from Sigma.
Fur at back of the neck was shaved in an area of 1.5×1.5 cm under anesthesia, and 150 μL (a 100% ethanol solution) of 3% (wt/vol) Oxa was added using a pipette and applied between the shoulders to sensitize (Day 1). The mice were kept under such a typical breeding environment, fasted for 16 hours from Day 7 (water supply was continued), and subsequently on Day 8 100 μL of a solution of 1% (wt/vol) Oxa in 50% ethanol was transanally administered into the rectum (3.5 cm from the anus) using a catheter under anesthesia. Hereinafter, the above treatment is described as Oxa treatment. After treatment, typical feeding breeding was carried out.
Starting on the day following intrarectal administration of Oxa, test substances were orally administered (once daily, for 6 days). 5-Aminosalicylic acid (hereinafter 5-ASA, Tokyo Chemical Industry, Co., Ltd.) and prednisolone (hereinafter, PSL, Sigma), which are anti-inflammatory agents used for treating ulcerative colitis, were used as positive controls for the test. After group division, each of the test substances of Table 6 was suspended in a solution of 0.5% sodium carboxymethyl cellulose (hereinafter, CMC, Nacalai Tesque Inc.) in such a way as to be each treatment of Table 6 and orally administered once daily. […] These control groups, Groups 1 and 2, were orally administered, as the test substance, with the 0.5% CMC solution which was used as the medium.
The test started with 6 mice in Group No. 1 and 9 mice each in Group Nos. 2 to 6. After the treatment started, death of animals in Group Nos. 2 to 6 due to the cause considered enteritis from Oxa treatment was observed and thus 6 mice in Group Nos. 1 and 3, and 5 mice in Group Nos. 2 and 6, and 7 mice in Group Nos. 4 and 5 were finally used for analysis.
It is generally acknowledged as a known fact that Oxa treatment causes colon tissue changes such as the length of colon is shortened while the weight increases. For evaluating the therapeutic effect of Compound X, the length and weight of the colon were measured. The mice were euthanized under anesthesia on day 7 of Oxa treatment and dissected to remove the colon. The removed colon was quickly measured for a length in a relaxed state. Subsequently, feces in the intestinal tract were removed and sufficiently washed with phosphate buffered saline (Wako Pure Chemical Industries, Ltd.) and measured for a wet weight.

[1] = Group Nos. 3 to 6 of Table 7, in words
[2] = Oxa treatment + high dose 10 mg/kg/day oral, day 7, 10 mg/kg/day

**Q.** What does the source list for CC1=C(/C=C/C(C)=C/C=C/C(C)=C/C=C/C=C(C)/C=C/C=C(C)/C=C/C2=C(C)C(=O)[C@@H](OC(=O)CNC(=O)NCCCC(=O)O)CC2(C)C)C(C)(C)C[C@H](OC(=O)CNC(=O)NCCCC(=O)O)C1=O.NCCCC[C@H](N)C(=O)O.NCCCC[C@H](N)C(=O)O [Compound X, 4-(3-{4-[18-(4(S)-[3-(3-Carboxypropyl)ureidoacetoxy]-2,6,6-trimethyl-3-oxocyclohexa-1-enyl)-3,7,12,16-tetramethyloctadeca-1(E),3(E),5(E),7(E),9(E),11(E),13(E),15(E),17(E)-nonaenyl]-3,5,5-trimethyl-2-oxocyclohex-3-enyl-1(S)-oxycarbonylmethyl}ureido)butyric acid dilysine salt]?
**A.** Colon length compared with Vehicle group [1]: longer length of the colon than Vehicle group; Colon wet weight compared with Vehicle group [1]: suppressed weight increases compared with Vehicle group; Colon length [2]: 8.74 cm and 8.74 ± 0.48 cm; Colon weight (wet weight per length) [2]: 2.80 mg/mm and 2.80 ± 0.43 mg/mm; Colon length (Oxa treatment + low dose 3 mg/kg/day oral, Balb/c mice, day 7 of Oxa treatment, 3 mg/kg/day): 8.72 cm and 8.72 ± 0.50 cm; Colon weight (wet weight per length) (Oxa treatment + low dose 3 mg/kg/day oral, day 7, 3 mg/kg/day): 3.44 mg/mm and 3.44 ± 0.45 mg/mm
